{"source": "paper PMC7708037", "about": "“Targeting OGG1 arrests cancer cell proliferation by inducing replication stress” (Nucleic Acids Research, 2020)", "key": {"OGG1 enzyme": {"target": "OGG1 enzyme (Homo sapiens, UniProt O15527)", "sequence (O15527 whole entry)": "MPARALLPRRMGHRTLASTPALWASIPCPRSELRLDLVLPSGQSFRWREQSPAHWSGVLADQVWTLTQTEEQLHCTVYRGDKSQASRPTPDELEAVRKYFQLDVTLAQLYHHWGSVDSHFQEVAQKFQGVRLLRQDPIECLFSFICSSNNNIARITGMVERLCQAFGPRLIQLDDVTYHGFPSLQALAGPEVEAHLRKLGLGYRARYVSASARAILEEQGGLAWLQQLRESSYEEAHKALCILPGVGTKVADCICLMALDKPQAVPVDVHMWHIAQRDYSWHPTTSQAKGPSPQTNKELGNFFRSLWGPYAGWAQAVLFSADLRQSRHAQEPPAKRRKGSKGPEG", "assay": "OGG1 activity in vitro (biochemical assay)", "conditions": "presence of 1% (w/v) bovine serum albumin", "protocol": "OGG1 activity was assessed in vitro as previously described ([39]).\nFigure 7. […] (A) Lack of TH5487 efficacy in vivo. A3 cells were injected subcutaneously in mice, allowed to graft for three days and then administered […] TH5487 orally, once a day on weekdays. Twelve days into the treatment, the dose was increased to 40 mg/kg. Data are average ± SD (n = 9 per treatment group). (B) TH5487 target engagement in A3 xenograft. Tumors were excised following termination, and TH5487 target engagement was analyzed by cellular thermal shift assay, using an antibody specific for the human OGG1 protein. Data are average ± SD (n = 4 different tumors per group). (C) Effect of bovine serum albumin on OGG1 inhibition by TH5487. A dilution series of TH5487 was incubated with OGG1 enzyme and a DNA reporter oligonucleotide containing an OGG1-substrate, in the presence or absence of 1% (w/v) bovine serum albumin. Data are average ± SD of four technical replicates from two independent experiments.\nSupplementary Fig. S4: OGG1 inhibitors selectively inhibt cancer cell line proliferation A. TH5796 and TH6943 inhibit OGG1 activity in vitro. OGG1 enzyme was treated with the indicated concentration inhibitor in technical duplicates. The line connects the average values. TH5796 inhibits OGG1 with an […]\nwith the indicated concentrations of TH5796 or TH6943 and 10 nM 8oxoA:C substrate in the presence of 2 nM APE1 as described. B. Chemical structure of TH5487 and the analogues described in this work.\nC. Correlation between TH5487 EC 50 values and TH5796 or TH6943. Cell lines were treated for five […]\nexperiments. The lines indicate the best fit linear regression line, and R 2 the corresponding coefficient of determination. D. to F. Cancer cell selectivity for TH5487 (D), TH5796 (E) and TH6943 (F). Cell lines were treated as in Fig. 3E, and each point represents the EC50 value determined from 1 –5 independent […]\n(1 picture or pasted object on this page, not shown here)"}, "H460": {"tested_on": "H460", "assay": "Resazurin viability, 5 days", "type": "cell-based, human", "conditions": "H460, C, Large cell lung carcinoma", "protocol": "(§1) Cells were seeded in 96- or 384-well plates and incubated for 3 days for combination experiments or 5 days for single-drug exposure experiments. Resazurin (R7017, SigmaAldrich) was added to a final concentration of 0.01 mg/ml resazurin and fluorescence was measured at ex530/em590 after incubation for 2, 4 or 6 h. Curves were fitted using XLfit software (IDBS) or Prism 8.0 (Graphpad Software), and EC50 values were determined.\n(§2) Supplementary Table S1: Effect of OGG1 inhibitors on cancer and non-transformed cell lines.\n(§3) Cell lines were incubated with a dilution series of the indicated compounds for 5 days, and viability\n(§4) assessed with resazurin. EC50-values were calculated based on the resulting dose -response curves.\n(§5) The number of independent experiments is indicated for each value.\n(§6) C=cancer;N=non- Disease EC50 n= EC50 n= EC50 n="}, "HL-60": {"tested_on": "HL-60", "assay": "Resazurin viability, 5 days", "type": "cell-based, human", "conditions": "HL-60, C, Acute promyelocytic leukemia", "protocol": "as §1, §2, §3, §4, §5, §6"}, "HeLa": {"tested_on": "HeLa", "assay": "Resazurin viability, 5 days", "type": "cell-based, human", "conditions": "C, Cervix adenomcarcinoma", "protocol": "as §1, §2, §3, §4, §5, §6"}, "Raji": {"tested_on": "Raji", "assay": "Resazurin viability, 5 days", "type": "cell-based, human", "conditions": "C, Burkitt's lymphoma", "protocol": "as §1, §2, §3, §4, §5, §6"}, "SW480": {"tested_on": "SW480", "assay": "Resazurin viability, 5 days", "type": "cell-based, human", "conditions": "SW480, C, Colorectal adenocarcinoma", "protocol": "as §1, §2, §3, §4, §5, §6"}, "PL-21": {"tested_on": "PL-21", "assay": "Resazurin viability, 5 days", "type": "cell-based, human", "conditions": "PL-21, C, Acute myeloid leukemia", "protocol": "as §1, §2, §3, §4, §5, §6"}, "KG1a": {"tested_on": "KG1a", "assay": "Resazurin viability, 5 days", "type": "cell-based, human", "conditions": "C, Acute myelogenous leukemia", "protocol": "as §1, §2, §3, §4, §5, §6"}, "M059K": {"tested_on": "M059K", "assay": "Resazurin viability, 5 days", "type": "cell-based, human", "conditions": "C, Glioblastoma", "protocol": "as §1, §2, §3, §4, §5, §6"}, "HCT116": {"tested_on": "HCT116", "assay": "Resazurin viability, 5 days", "type": "cell-based, human", "conditions": "HCT116, C, Colorectal carcinoma", "protocol": "as §1, §2, §3, §4, §5, §6"}, "Daudi": {"tested_on": "Daudi", "assay": "Resazurin viability, 5 days", "type": "cell-based, human", "conditions": "C, Burkitt's lymphoma", "protocol": "as §1, §2, §3, §4, §5, §6"}, "786-0": {"tested_on": "786-0", "assay": "Resazurin viability, 5 days", "type": "cell-based, human", "conditions": "786-0, C, Kidney adenocarcinoma", "protocol": "as §1, §2, §3, §4, §5, §6"}, "A498": {"tested_on": "A498", "assay": "Resazurin viability, 5 days", "type": "cell-based, human", "conditions": "A498, C, Kidney carcinoma", "protocol": "as §1, §2, §3, §4, §5, §6"}, "DU145": {"tested_on": "DU145", "assay": "Resazurin viability, 5 days", "type": "cell-based, human", "conditions": "DU145, C, Prostate carcinoma", "protocol": "as §1, §2, §3, §4, §5, §6"}, "T98G": {"tested_on": "T98G", "assay": "Resazurin viability, 5 days", "type": "cell-based, human", "conditions": "C, Glioblastoma", "protocol": "as §1, §2, §3, §4, §5, §6"}, "BJ-Tert": {"tested_on": "BJ-Tert", "assay": "Resazurin viability, 5 days", "type": "cell-based, human", "protocol": "as §1, §2, §3, §4, §5, §6"}, "SaOS2": {"tested_on": "SaOS2", "assay": "Resazurin viability, 5 days", "type": "cell-based, human", "conditions": "SaOS2, C, Osteosarcoma", "protocol": "as §1, §2, §3, §4, §5, §6"}, "Rec1": {"tested_on": "Rec1", "assay": "Resazurin viability, 5 days", "type": "cell-based, human", "conditions": "Rec1, C, B cell non-Hodgkin's lymphoma", "protocol": "as §1, §2, §3, §4, §5, §6"}, "PC3": {"tested_on": "PC3", "assay": "Resazurin viability, 5 days", "type": "cell-based, human", "conditions": "PC3, C, Prostate adenocarcinoma", "protocol": "as §1, §2, §3, §4, §5, §6"}, "CCD841": {"tested_on": "CCD841", "assay": "Resazurin viability, 5 days", "type": "cell-based, human", "conditions": "CCD841, N, Non-transformed fibroblast", "protocol": "as §1, §2, §3, §4, §5, §6"}, "M059J": {"tested_on": "M059J", "assay": "Resazurin viability, 5 days", "type": "cell-based, human", "conditions": "C, Glioblastoma", "protocol": "as §1, §2, §3, §4, §5, §6"}, "UO31": {"tested_on": "UO31", "assay": "Resazurin viability, 5 days", "type": "cell-based, human", "conditions": "UO31, C, Kidney carcinoma", "protocol": "as §1, §2, §3, §4, §5, §6"}, "MV4-11": {"tested_on": "MV4-11", "assay": "Resazurin viability, 5 days", "type": "cell-based, human", "conditions": "MV4-11, C, Acute monocytic leukemia", "protocol": "as §1, §2, §3, §4, §5, §6"}, "U2OS": {"tested_on": "U2OS", "assay": "Resazurin viability, 5 days", "type": "cell-based, human", "conditions": "C, Osteosarcoma", "protocol": "as §1, §2, §3, §4, §5, §6"}, "MOLT4": {"tested_on": "MOLT4", "assay": "Resazurin viability, 5 days", "type": "cell-based, human", "conditions": "MOLT4, C, T-cell acute lymphoblastic leukemia", "protocol": "as §1, §2, §3, §4, §5, §6"}, "MRC5": {"tested_on": "MRC5", "assay": "Resazurin viability, 5 days", "type": "cell-based, human", "conditions": "MRC5, N, Non-transformed lung fibroblast", "protocol": "as §1, §2, §3, §4, §5, §6"}, "HCT116+Chr3": {"tested_on": "HCT116+Chr3", "assay": "Resazurin viability, 5 days", "type": "cell-based, human", "conditions": "HCT116+Chr3, C, Colorectal carcinoma with WT Chr3", "protocol": "as §1, §2, §3, §4, §5, §6"}, "HT-29": {"tested_on": "HT-29", "assay": "Resazurin viability, 5 days", "type": "cell-based, human", "conditions": "HT-29, C, Colorectal adenocarcinoma", "protocol": "as §1, §2, §3, §4, §5, §6"}, "VH10": {"tested_on": "VH10", "assay": "Resazurin viability, 5 days", "type": "cell-based, human", "conditions": "VH10, N, Non-transformed fibroblast", "protocol": "as §1, §2, §3, §4, §5, §6"}}, "note": "Where two headings read alike, the source gives them in different places.", "data": [{"smiles": "O=C(Nc1ccc(I)cc1)N1CCC(n2c(=O)[nH]c3c(Br)cccc32)CC1", "note": "[TH5487]", "values": [{"measurement": "Effect of bovine serum albumin on OGG1 inhibition", "setting": "OGG1 enzyme", "result": "marked loss of inhibition of OGG1 enzyme activity"}, {"measurement": "EC50", "setting": "H460", "result": 10.1, "unit": "µM"}, {"measurement": "EC50", "setting": "HL-60", "result": 15.9, "unit": "µM"}, {"measurement": "EC50", "setting": "HeLa", "result": 19.3, "unit": "µM"}, {"measurement": "EC50", "setting": "Raji", "result": 19, "unit": "µM"}, {"measurement": "EC50", "setting": "SW480", "result": 33.3, "unit": "µM"}, {"measurement": "EC50", "setting": "PL-21", "result": 20.6, "unit": "µM"}, {"measurement": "EC50", "setting": "KG1a", "result": 14.3, "unit": "µM"}, {"measurement": "EC50", "setting": "M059K", "result": 20.3, "unit": "µM"}, {"measurement": "EC50", "setting": "HCT116", "result": 17.5, "unit": "µM"}, {"measurement": "EC50", "setting": "Daudi", "result": 16.6, "unit": "µM"}, {"measurement": "EC50", "setting": "786-0", "result": 29.7, "unit": "µM"}, {"measurement": "EC50", "setting": "A498", "result": 28.5, "unit": "µM"}, {"measurement": "EC50", "setting": "DU145", "result": 13.2, "unit": "µM"}, {"measurement": "EC50", "setting": "T98G", "result": 14.5, "unit": "µM"}, {"measurement": "EC50", "setting": "BJ-Tert; BJ-Tert, N, Tert-Immortalized fibroblast, 5 days, resazurin, read-out: EC50", "result": 33.7, "unit": "µM"}, {"measurement": "EC50", "setting": "BJ-Tert; hTERT-immortalized BJ fibroblasts, five days, Figure 3C, read-out: EC50 (viability)", "result": "29.5 ± 4.7", "unit": "µM"}, {"measurement": "EC50", "setting": "SaOS2", "result": 21.4, "unit": "µM"}, {"measurement": "EC50", "setting": "Rec1", "result": 13.7, "unit": "µM"}, {"measurement": "EC50", "setting": "PC3", "result": 32.6, "unit": "µM"}, {"measurement": "EC50", "setting": "CCD841", "result": 43.3, "unit": "µM"}, {"measurement": "EC50", "setting": "M059J", "result": 26.1, "unit": "µM"}, {"measurement": "EC50", "setting": "UO31", "result": 2.9, "unit": "µM"}, {"measurement": "EC50", "setting": "MV4-11", "result": 7.8, "unit": "µM"}, {"measurement": "EC50", "setting": "U2OS", "result": 19.5, "unit": "µM"}, {"measurement": "EC50", "setting": "MOLT4", "result": 13.2, "unit": "µM"}, {"measurement": "EC50", "setting": "MRC5", "result": 42.4, "unit": "µM"}, {"measurement": "EC50", "setting": "HCT116+Chr3", "result": 20.6, "unit": "µM"}, {"measurement": "EC50", "setting": "HT-29", "result": 24.5, "unit": "µM"}, {"measurement": "EC50", "setting": "VH10", "result": 32.4, "unit": "µM"}]}]}
